Data published in BindingDB's records for doi:10.1080/14756360500179333 (University of Karachi, 2005).

Target: Tyrosinase (Agaricus bisporus)
Experiment: Tyrosinase inhibition assays were performed in a 96-well microplate format using SpectraMax 340 (Molecular Devices, CA, USA) microplate reader according to method developed earlier.
Settings: pH 6.8

| SMILES | IC50 [µM] |
| --- | --- |
| CC(=O)N1CCC(N2CCCCC2)CC1 | 29.9 |
| C1CCN(C2CCNCC2)CC1 [Tyrosinase Inhibitor, 1] | 111 |
| Cc1ccc(CN2CCC(N3CCCCC3)CC2)cc1 [Tyrosinase Inhibitor, 4] | 1.72 |
| O=[N+]([O-])c1ccc(S(=O)(=O)N2CCC(N3CCCCC3)CC2)cc1 [Tyrosinase Inhibitor, 8] | 8.76 |
